One series has as its system adult rat DRG explants. The series is classed as cell-based.
The test system of series [1] is dissociated neonatal DRG neurons. More on the design: method as in PMID 7617165. To be noted: 30 μM, within 24 hours; cited from earlier work.
The next series concerns rat DRG explants. Kind of series: DRG cytotoxicity assessment using LDH assay. The series is classed as cell-based. Conditions: for Cytotoxicity (%): single well; for Overall cytotoxicity lower compared to lysed DRGs: all concentrations tested, day 3. The procedure: (§1) 500 nM Imy and 10 nM Vcr were excluded from female rat DRG experiments while 500 nM Vcr and 1 mM Pyr were excluded from male rat DRG experiments due to insufficient DRG replicates with axon outgrowth. DRG media was removed from wells and transferred into a 96-well plate for pre-treat LDH cytotoxicity assay (see Methods below). 300 μL of media treatment solutions or solvent control solutions were added to wells. DRGs were incubated with treatment solutions for three days, and brightfield images at 4X magnification were taken using BioTek Cytation1 Plate Imager (Agilent) before treatment (day -1) and on days 1, 2 and 3 after treatment. DRGs from adult male and female rats were tested to determine if sex can affect axonal dieback. In total, 12 to 15 DRG replicates per group by sex harvested from n = 3 male and n = 3 female rats were tested.
(§2) Lactate dehydrogenase (LDH) is a cytosolic enzyme present in all cells. Dissociated rat DRG neurons release LDH during tunicamycin-induced apoptosis. […] An ideal axonal dieback compound should cause axonal degeneration without neurotoxicity. was assessed on day 3 post-treat and normalized to pre-treat levels to account for variability in DRG size and growth and calculated as a percentage of cytotoxicity to lysed DRGs (positive control). 50 μL of pre-treatment and post-treatment media were aliquoted in duplicates into a 96-well plate. LDH activity in the media post-treat was assessed using the CyQUANT^TM LDH Cytotoxicity Assay Kit (Thermo Fisher Scientific, C20301) according to the manufacturer’s instructions. Briefly, 50 μL of Substrate Mix was added to each well and then incubated at room temperature for 30 minutes protected from light. 50 μL of Stop solution was added to each well and the absorbance at 490 nm and 680 nm was measured using a microplate reader (Agilent). LDH activity of each DRG was calculated as the difference between absorbance at 490 nm after subtracting the background absorbance at 680 nm. As a positive control, 13 female rat DRGs and 15 male rat DRGs were treated for three days with Lysis buffer solution, provided in the kit, diluted 1:5.45 in DRG media. The percentage of cytotoxicity was calculated following Eq 2. Pre-treat levels of LDH activity were subtracted from post-treat LDH activity in each DRG to remove baseline LDH activity then percentage of cytotoxicity compared to positive control lysed DRG LDH activity was calculated. Sex is a biological factor that can influence neurotoxicity. Thus, percentage of cytotoxicity of total 11 to 14 DRG replicates per group by sex from n = 3 male and n = 3 female rats were tested.
(§3) Cytotoxicity(%)=(PosttreatLDHactivity)−(PretreatLDHactivity)/(MaximumLDHactivityfromlysedDRGs)−(PretreatLDHactivity)×100% (2)

On the set-up of series [2]: method as in PMID 30888737. To be noted: intraarticular injection; cited from earlier work.
In series [3] the test system is Human NP cells. Kind of series: NP cell metabolic activity (AlamarBlue reduction).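 As to AB reduction per cell (%): percent AlamarBlue reduction per manufacturer divided by estimated total cells per well from LIVE/DEAD counts.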 The series is classed as cell-based. As for the experimental part:
(§4) Nucleus pulposus (NP) cells are native matrix-producing cells at the core of intervertebral discs. To repurpose axonal dieback compounds to denervate aberrant nerve fibers in discs related to chronic LBP, the cytocompatibility of these compounds with NP cells must be evaluated. Human NP cells (Sciencell, 4800) from donor 1 (Lot #5954) and donor 2 (Lot# 21579) were cultured according to previously established protocol in our lab adapted from manufacturer’s instructions. Briefly, passage three cells from both donors were expanded in Poly-L-lysine (PLL) (Sciencell, 413) coated T75 flasks. Cells were then lifted and reseeded at 5,000 cells/cm^2 onto two PLL-coated 48-well plates (Greiner Bio-One, 677180) and allowed to attach overnight before treating with Pyr or Vcr. One plate was used for LIVE/DEAD staining and the other plate was used for AlamarBlue assay as described below. Complete NP cell media (Sciencell, 4801) containing basal media supplemented with 1% penicillin-streptomycin, 1% growth supplement and 2% FBS were used for maintaining cells in culture. To mimic the hypoxic disc environment, NP cells were cultured in a hypoxia chamber (Stem Cell Technologies, 27310) with 5% CO2, 3.5% O2, 91.5% N2 (Airgas) during the entire culture and treatment incubation period.
(§5) Pyr stock solution was diluted in complete NP media to achieve final concentrations of 500 μM, 1 mM and 2 mM Pyr. 16.9 μg/mL and 169 μg/mL Vcr stock solutions were prepared in 1X PBS then diluted in complete NP media to achieve final concentrations of 10, 25, 50, 100 nM and 200, 500 nM, respectively. Cells were incubated with 250 μL of final treatment solutions in duplicate wells per donor for three days. Cells in negative control group were incubated with 250 μL of complete NP media with 0.55% v/v 1X PBS as solvent control. On day 3 post-treatment, brightfield images at 4X magnification were taken using a BioTek Cytation1 Plate Imager (Agilent) to verify cell proliferation and observe cell morphology. Three experimental replicates were performed for each cell donor.
On day 3 of incubation with drugs, 25 μL (10% v/v of media volume) of AlamarBlue HS cell viability reagent (Thermo Fisher Scientific, A50100) were added into each well. Cells were incubated with the AlamarBlue reagent for 2 hours at 37°C under hypoxia then 60 μL aliquots of cell media were removed in duplicates into a 96-well plate. The absorbance at 570 and 600 nm were read using a microplate reader (Agilent) and calculations for AlamarBlue reduction were calculated according to the manufacturer’s protocol. To account for different cell confluency between donors and groups, AlamarBlue reduction was normalized to estimated total number of cells per well obtained from LIVE/DEAD staining. Cellular metabolic activity in treated groups was reported as a ratio of normalized AlamarBlue reduction to PBS control group.

Series [4] has as its system Human NP cells. Kind of series: Quantification of viable NP cells (LIVE/DEAD staining). The series is classed as cell-based. As for the experimental part:
as §4, §5
(§6) On day 3 of incubation with drug, media treatment solutions were removed from each well and cells were carefully rinsed with 200 μL of sterile 1X PBS to remove excess media. NP cells were stained with 150 μL of 2 μM Calcein AM and 6 μM EtHD-1 solution from LIVE/DEAD Viability/Cytotoxicity Kit (Thermo Fisher Scientific, L3224) for 30 minutes at room temperature protected from light. After staining, cells were gently rinsed with 200 μL sterile 1X PBS to remove excess staining solution. Excitation and emission wavelengths for live cell fluorescence is 495 and 515 nm and dead cell fluorescence is 495 and 635 nm. Using a BioTek Cytation1 Plate Imager (Agilent), GFP filter cube (Agilent, 1225101, ex: 451.5–486.5 nm, em: 505.5–544.5 nm) and RFP filter cubes (Agilent, 1225103, ex: 511-551nm, em: 573–613 nm), fluorescent images at 4X magnification of four regions per well were taken. Gen5 v3.11 software (Agilent) was used to count green (live) and orange (dead) cells in fluorescent images. Dead NP cell staining was verified and evident by positive EtHD-1 orange staining in kill control wells where cells were treated with 70% EtOH for 10 minutes (S4 Fig). Percentage of live cells were calculated by calculating the percentage of live cells over total cell counts as shown in Eq 3.
(§7) Cellviability(%)=Livecellcounts/Livecellcounts+Deadcellcounts×100% (3)

Assay in series [5]: as above
To be noted: both sexes, human; 500 μM, 1 mM and 2 mM, day 3 post-treatment, either donor; read-out: Percentage of viable cells. The series is classed as cell-based, human. As for the experimental part:
as §4, §5, §6, §7

Series [6] can be described thus: DRG cytotoxicity assessment using LDH assay. The series is classed as cell-based, rat. To be noted: female, rat, rat dorsal root ganglion (DRG) explants, female rat DRG explant, single well. As for the experimental part:
as §1, §2, §3

For a further series, the system named is sciatic nerves. On the set-up: method as in PMID 3126271. To be noted: applied onto sciatic nerves; cited from earlier work.
[7] abbreviates: 500 µM, donor 1, day 3, single wells (Exp, Rep).
Setting [8] is: 500 µM, donor 2, day 3, single wells (Exp, Rep).
Where [9] appears, read: 1 mM, donor 1, day 3, single wells (Exp, Rep).
The mark [10] stands for this setting: 1 mM, donor 2, day 3, single wells (Exp, Rep).
Setting [11] is: 2 mM, donor 1, day 3, single wells (Exp, Rep).

Values joined by “and” are separate entries in the source; they are usually repeats but may differ in a detail not shown here. Equal entries are not always repeated. Structures can show the parent of a compound that is named as a salt.

As for `COc1cc(CNC(=O)CCCC/C=C/C(C)C)ccc1O` [Caps, capsaicin], in the series with adult rat DRG explants, the “Median axon length ratio (interquartile range)” value (shortened to “Median axon length ratio”) was 0.657 (0.359–0.750) and 0.453 (0.270–0.624). The Cell death result in series [1] is “induced significant cell death”. For the same compound, the “Percentage of cytotoxicity lower than in lysed DRGs” value in the series on rat DRG explants (3.79 mM, 3-day incubation) amounted to 90.2%. In addition, the “Cytotoxicity (%)” value in the series with rat DRG explants (3.79 mM, male rat DRG explant) is reported as 16.4427%. In addition, in the series with rat DRG explants, the “Overall cytotoxicity lower compared to lysed DRGs” value was “at least 88%”. The “Duration of alleviation of knee pain” value in series [2] was “about 18 weeks”.

Turning to `Cc1ncc(CO)c(CO)c1O` [Pyr, Pyridoxine hydrochloride], the “Axonal dieback over time and against solvent control” value in the series with adult rat DRG explants is reported as “did not induce significant axonal dieback”. For the same compound, the “Day on which Caps axon length ratio threshold (0.45) was met” value with adult rat DRG explants is at most 2 days. Also, in the series on adult rat DRG explants, the “Median axon length ratio” value was 0.607 (0.418–0.875) and 0.539 (0.317–0.676) and 0.451 (0.347–0.587). Besides, in the series on Human NP cells [3] (500 μM, 1 mM and 2 mM, day 3), the “AlamarBlue reduction normalized to cell counts compared to PBS control” value was “not significantly different between PBS control and all treated groups”. Further, the “AB reduction per cell (%)” value in the series with Human NP cells [3] (setting [7]) was 0.001757% and 0.001402% and 0.001221% and 0.001189% and 0.001666% and 0.001549%; in the series on Human NP cells [3] (setting [8]), 0.002098% and 0.001803% and 0.002358% and 0.001696% and 0.002473% and 0.003239%; with Human NP cells [3] (setting [9]), 0.001279% and 0.001156% and 0.001657% and 0.001546%; in the series on Human NP cells [3] (setting [10]), 0.001937% and 0.002155% and 0.002387% and 0.003301%; in the series on Human NP cells [3] (setting [11]) it was 0.002206% and 0.002078% and 0.002787% and 0.003671% and 0.002259% and 0.001426%; in the series with Human NP cells [3] (2 mM, donor 2, day 3, single wells (Exp, Rep)), 0.00138% and 0.001132% and 0.01401% and 0.003735% and 0.006792% and 0.003692%. Further, the “Percent live (%)” value in the series with Human NP cells [4] (setting [7]) was 99.8382% and 99.8845% and 99.1403% and 98.8605% and 99.9471% and 98.2749%; in the series on Human NP cells [4] (setting [8]) it was 97.5506% and 96.954% and 96.3405% and 99.1395% and 96.5794% and 98.8823%; in the series on Human NP cells [4] (setting [9]), 99.8893% and 99.7678% and 99.8269% and 99.7809%; with Human NP cells [4] (setting [10]) it was 96.1436% and 95.9726% and 96.9575% and 96.5249%; with Human NP cells [4] (setting [11]) it was 98.6699% and 99.5161% and 83.5317% and 86.125% and 97.6421% and 98.8217%. The viability at 3 days in series [5] was above 89%. Moreover, the “Cytotoxicity (%)” value is 1.523% and -1.428% and 2.095% with rat DRG explants (50 µM, female rat DRG explant); 8.854% and 7.426% in the series on rat DRG explants (500 µM, female rat DRG explant); 4.951% and 3.523% in the series with rat DRG explants (1 mM, female rat DRG explant). Besides, the cytotoxicity at 3 days, 500 µM in series [6] (500 µM) is 5.33%. In series [6] (1 mM), the cytotoxicity at 3 days, 1 mM worked out at 3.24%.

For the compound `C[C@H](CCC(=O)O)C[C@H](C)C[C@H](C)C(=O)/C=C(\O)[C@H](C)C[C@H](C)C/C=C/[C@@H](C)[C@@H](O)[C@@H](C)[C@@H](O)C[C@@H]1CC[C@@](C)([C@H]2CC[C@@](C)([C@@H](C)O)O2)O1` [Imy, Ionomycin], in the series with adult rat DRG explants, the “Change in axon length ratio between timepoints” value is given as “no significant differences were observed between timepoints”; the “Decrease in axon length” value was determined as 10%; the “Median axon length ratio” value is 0.977 (0.852–1.004) and 0.9 (0.75–0.985) and 0.982 (0.854–1.121). Besides, the “Fibers exhibiting large nerve lesions” value with sciatic nerves is reported as “up to 95%”. For the same compound, the “Cytotoxicity (%)” value in the series on rat DRG explants (0.77 µM, female rat DRG explant) was 6.379% and 11.5202%. In the series with rat DRG explants, the “Overall cytotoxicity lower compared to lysed DRGs” value is on record as “at least 88%”. This compound registered a cytotoxicity at 3 days, 0.77 µM in series [6] (0.77 µM) of 8.76%.
